Source: PubChem BioAssay (NCI)
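Following 48 hours of exposure in 96-well plates, responses at five concentrations were used to interpolate endpoints linearly. Here, GI50 denotes the concentration required for 50% inhibition of growth. At the TGI there is no net growth.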

Key:
Assay in all cases: NCI tumour cell line growth inhibition, 48 h; in the data active = GI50 below about 0.43 µM; inactive = the rest
786-0 renal = system: 786-0 renal
A498 renal = system: A498 renal
A549 NSCLC = system: A549 NSCLC
ACHN renal = system: ACHN renal
BT-549 breast = system: BT-549 breast
CAKI-1 renal = system: CAKI-1 renal
CCRF-CEM leukemia = system: CCRF-CEM leukemia
COLO 205 colon = system: COLO 205 colon
DU-145 prostate = system: DU-145 prostate
EKVX NSCLC = system: EKVX NSCLC
HCC-2998 colon = system: HCC-2998 colon
HCT-116 colon = system: HCT-116 colon
HCT-15 colon = system: HCT-15 colon
HL-60(TB) leukemia = system: HL-60(TB) leukemia
HOP-62 NSCLC = system: HOP-62 NSCLC
HOP-92 NSCLC = system: HOP-92 NSCLC
HS 578T breast = system: HS 578T breast
HT29 colon = system: HT29 colon
IGROV1 ovarian = system: IGROV1 ovarian
K-562 leukemia = system: K-562 leukemia
KM12 colon = system: KM12 colon
LOX IMVI melanoma = system: LOX IMVI melanoma
M14 melanoma = system: M14 melanoma
MALME-3M melanoma = system: MALME-3M melanoma
MCF7 breast = system: MCF7 breast
MDA-MB-231 breast = system: MDA-MB-231 breast
MDA-MB-435 = system: MDA-MB-435
MOLT-4 leukemia = system: MOLT-4 leukemia
NCI-H226 lung = system: NCI-H226 lung
NCI-H23 lung = system: NCI-H23 lung
NCI-H460 lung = system: NCI-H460 lung
NCI-H522 lung = system: NCI-H522 lung
NCI/ADR-RES ovarian = system: NCI/ADR-RES ovarian
OVCAR-4 ovarian = system: OVCAR-4 ovarian
OVCAR-5 ovarian = system: OVCAR-5 ovarian
OVCAR-8 ovarian = system: OVCAR-8 ovarian
PC-3 prostate = system: PC-3 prostate
RPMI-8226 leukemia = system: RPMI-8226 leukemia
RXF 393 renal = system: RXF 393 renal
SF-268 CNS = system: SF-268 CNS
SF-295 CNS = system: SF-295 CNS
SF-539 CNS = system: SF-539 CNS
SK-MEL-2 melanoma = system: SK-MEL-2 melanoma
SK-MEL-28 melanoma = system: SK-MEL-28 melanoma
SK-MEL-5 melanoma = system: SK-MEL-5 melanoma
SK-OV-3 ovarian = system: SK-OV-3 ovarian
SN12C renal = system: SN12C renal
SNB-19 CNS = system: SNB-19 CNS
SNB-75 CNS = system: SNB-75 CNS
SR leukemia = system: SR leukemia
SW-620 colon = system: SW-620 colon
T-47D breast = system: T-47D breast
TK-10 renal = system: TK-10 renal
U251 CNS = system: U251 CNS
UACC-62 melanoma = system: UACC-62 melanoma
UO-31 renal = system: UO-31 renal

Oc1ccc(-c2nnc(SCc3ccc(O)c4ncccc34)n2-c2ccccc2)cc1
> 29100 nM: TGI (MALME-3M melanoma)
6280 nM: TGI (NCI-H460 lung)
6930 nM: TGI (LOX IMVI melanoma)
2730 nM: TGI (HL-60(TB) leukemia)
4260 nM: TGI (UO-31 renal)
active: GI50 (ACHN renal) 365 nM | GI50 (CCRF-CEM leukemia) 327 nM | GI50 (HCT-116 colon) 158 nM | GI50 (HCT-15 colon) 164 nM | GI50 (HL-60(TB) leukemia) 292 nM | GI50 (HOP-92 NSCLC) 28.9 nM | GI50 (K-562 leukemia) 290 nM | GI50 (KM12 colon) 372 nM | GI50 (LOX IMVI melanoma) 377 nM | GI50 (M14 melanoma) 284 nM | GI50 (MCF7 breast) 140 nM | GI50 (MDA-MB-435) 380 nM | GI50 (MOLT-4 leukemia) 394 nM | GI50 (NCI-H460 lung) 152 nM | GI50 (NCI-H522 lung) 330 nM | GI50 (NCI/ADR-RES ovarian) 207 nM | GI50 (OVCAR-8 ovarian) 233 nM | GI50 (RPMI-8226 leukemia) 391 nM | GI50 (SF-295 CNS) 387 nM | GI50 (SK-MEL-5 melanoma) 371 nM | GI50 (SN12C renal) 348 nM | GI50 (SNB-19 CNS) 385 nM | GI50 (SR leukemia) 325 nM | GI50 (SW-620 colon) 397 nM | GI50 (U251 CNS) 194 nM | GI50 (UO-31 renal) 261 nM
> 25800 nM: TGI (BT-549 breast)
3980 nM: TGI (UACC-62 melanoma)
5840 nM: TGI (A498 renal)
> 25900 nM: TGI (SK-OV-3 ovarian)
> 63400 nM: TGI (HCC-2998 colon)
845 nM: TGI (HOP-92 NSCLC)
> 36900 nM: TGI (SK-MEL-2 melanoma)
> 88300 nM: TGI (IGROV1 ovarian)
> 100000 nM: TGI (A549 NSCLC) | TGI (ACHN renal) | TGI (CAKI-1 renal) | TGI (CCRF-CEM leukemia) | TGI (COLO 205 colon) | TGI (DU-145 prostate) | TGI (EKVX NSCLC) | TGI (HCT-116 colon) | TGI (HCT-15 colon) | TGI (HOP-62 NSCLC) | TGI (HS 578T breast) | TGI (HT29 colon) | TGI (K-562 leukemia) | TGI (KM12 colon) | TGI (MCF7 breast) | TGI (MDA-MB-231 breast) | TGI (MDA-MB-435) | TGI (MOLT-4 leukemia) | TGI (NCI-H23 lung) | TGI (OVCAR-4 ovarian) | TGI (OVCAR-5 ovarian) | TGI (OVCAR-8 ovarian) | TGI (PC-3 prostate) | TGI (RPMI-8226 leukemia) | TGI (RXF 393 renal) | TGI (SF-268 CNS) | TGI (SF-295 CNS) | TGI (SK-MEL-28 melanoma) | TGI (SN12C renal) | TGI (SNB-19 CNS) | TGI (SR leukemia) | TGI (SW-620 colon) | TGI (T-47D breast) | TGI (TK-10 renal) | TGI (U251 CNS)
1570 nM: TGI (M14 melanoma)
> 81000 nM: TGI (SNB-75 CNS)
1840 nM: TGI (SK-MEL-5 melanoma)
inactive: GI50 (786-0 renal) 770 nM | GI50 (A498 renal) 570 nM | GI50 (A549 NSCLC) 614 nM | GI50 (BT-549 breast) 606 nM | GI50 (CAKI-1 renal) 448 nM | GI50 (COLO 205 colon) 3020 nM | GI50 (DU-145 prostate) 438 nM | GI50 (EKVX NSCLC) 596 nM | GI50 (HCC-2998 colon) 620 nM | GI50 (HOP-62 NSCLC) 521 nM | GI50 (HS 578T breast) 533 nM | GI50 (HT29 colon) 3850 nM | GI50 (IGROV1 ovarian) 471 nM | GI50 (MALME-3M melanoma) 902 nM | GI50 (MDA-MB-231 breast) 458 nM | GI50 (NCI-H226 lung) 718 nM | GI50 (NCI-H23 lung) 482 nM | GI50 (OVCAR-4 ovarian) 566 nM | GI50 (OVCAR-5 ovarian) 1320 nM | GI50 (PC-3 prostate) 433 nM | GI50 (RXF 393 renal) 881 nM | GI50 (SF-268 CNS) 465 nM | GI50 (SF-539 CNS) 528 nM | GI50 (SK-MEL-2 melanoma) 828 nM | GI50 (SK-MEL-28 melanoma) 621 nM | GI50 (SK-OV-3 ovarian) 496 nM | GI50 (SNB-75 CNS) 1500 nM | GI50 (T-47D breast) 600 nM | GI50 (TK-10 renal) 502 nM | GI50 (UACC-62 melanoma) 462 nM
> 44300 nM: TGI (SF-539 CNS)
2850 nM: TGI (NCI-H522 lung)
11100 nM: TGI (786-0 renal)
> 85800 nM: TGI (NCI-H226 lung)
